# Measured values taken from PMC9232501, “Results of the phase I CCTG IND.231 trial of CX-5461 in patients with advanced solid tumors enriched for DNA-repair deficiencies” (Nature Communications, 2022).
# Like-named read-outs stand apart in the source and are kept apart here.
# Test: Plasma pharmacokinetics of CX-5461 (HPLC-MS/MS, non-compartmental)
# Assay type: in vivo, human
# Details: plasma; for concentration at 48 h / concentration at 72 h / concentration at 0.5 h / concentration at 1 h / concentration at 4 h / concentration at 6 h / concentration at 0 h / concentration at 2 h / concentration at 24 h: individual patients, read-out: Day 1 CX-5461 plasma concentration
# Description: PK was assessed on all patients in the escalation phase. Venous blood samples were collected on treatment days 1, 8, and 15 (where applicable), and plasma CX-5461 was analyzed with HPLC-MS/MS (schedule details in Supplementary Table 3). PK parameters were calculated with non-compartmental methods. […] The protocol was amended to allow submission of a ctDNA sample and in a further amendment, a mandatory skin biopsy (pre-treatment and cycle 1 day 15) to study phototoxic effects. Fresh tumor biopsies were optional.
# Supplementary Table 3. Schedule for collection of CX5461 pharmacokinetics
# During infusion at 30 minutes
# Immediately post infusion then:
# C1D1 30 minutes post infusion
# C1D2 24 hours post infusion
# C1D3 48 hours post infusion
# C1D4 72 hours post infusion
# Immediately post infusion then
# C1D15 30 minutes post infusion
# C1D16 24 hours post infusion
# In addition to the specific time points listed above, additional samples were to be collected from […]
# [1] = human, intravenous, 50 mg/m2, 50 mg/m2
# [2] = human, intravenous, 100 mg/m2, 100 mg/m2
# [3] = human, intravenous, 150 mg/m2, 150 mg/m2
# [4] = human, intravenous, 200 mg/m2, 200 mg/m2
# [5] = human, intravenous, 250 mg/m2, 250 mg/m2
# [6] = human, intravenous, 325 mg/m2, 325 mg/m2
# [7] = human, intravenous, 325 mg/m2, B: 325 mg/m2
# [8] = human, intravenous, 475 mg/m2, 475 mg/m2
# [9] = human, intravenous, 475 mg/m2, B: 475 mg/m2
# [10] = human, intravenous, 650 mg/m2, 650 mg/m2
smiles,measurement,setting,value
Cc1cnc(CNC(=O)c2c(=O)c3ccc(N4CCCN(C)CC4)nc3n3c2sc2ccccc23)cn1 [CX-5461],concentration at 48 h,[1],24.8 ng/mL
same,concentration at 72 h,[1],13.3 ng/mL
same,AUC,"human, intravenous, 50 mg/m2, Dose level 50 (mg/m2), one patient per datapoint, read-out: Day 1 AUC",3240 ng·h/mL
same,concentration at 0.5 h,[2],141 ng/mL
same,concentration at 1 h,[2],115 ng/mL
same,concentration at 4 h,[2],103 ng/mL
same,concentration at 6 h,[2],83.2 ng/mL
same,concentration at 48 h,[2],44.7 ng/mL
same,concentration at 72 h,[2],20 ng/mL
same,AUC,"human, intravenous, 100 mg/m2, Dose level 100 (mg/m2), one patient per datapoint, read-out: Day 1 AUC",5240 ng·h/mL
same,Cmax,"human, intravenous, 100 mg/m2, Dose level 100 (mg/m2), one patient per datapoint, read-out: Day 8 or 15 Cmax",1140 ng/mL
same,concentration at 0 h,[3],465 ng/mL
same,concentration at 0.5 h,[3],320 ng/mL
same,concentration at 2 h,[3],206 ng/mL
same,concentration at 4 h,[3],200 ng/mL
same,concentration at 6 h,[3],179 ng/mL
same,Cmax,"human, intravenous, 150 mg/m2, Dose level 150 (mg/m2), one patient per datapoint, read-out: Day 1 Cmax",465 ng/mL
same,AUC,"human, intravenous, 150 mg/m2, Dose level 150 (mg/m2), one patient per datapoint, read-out: Day 8 or 15 AUC",19600 ng·h/mL
same,concentration at 24 h,[4],72.8 ng/mL
same,concentration at 72 h,[4],31.4 ng/mL
same,concentration at 0 h,[5],867 ng/mL
same,concentration at 0.5 h,[5],420 ng/mL
same,concentration at 1 h,[5],423 ng/mL
same,concentration at 2 h,[5],369 ng/mL
same,concentration at 4 h,[5],233 ng/mL
same,concentration at 24 h,[5],197 ng/mL
same,concentration at 48 h,[5],106 ng/mL
same,concentration at 72 h,[5],85.4 ng/mL
same,AUC,"human, intravenous, 250 mg/m2, Dose level 250 (mg/m2), one patient per datapoint, read-out: Day 1 AUC",12400 ng·h/mL
same,AUC,"human, intravenous, 250 mg/m2, Dose level 250 (mg/m2), one patient per datapoint, read-out: Day 8 or 15 AUC",19000 ng·h/mL
same,concentration at 0 h,[6],1310 ng/mL
same,concentration at 0.5 h,[6],446 ng/mL
same,concentration at 1 h,[6],400 ng/mL
same,concentration at 2 h,[6],395 ng/mL
same,concentration at 4 h,[6],244 ng/mL
same,concentration at 6 h,[6],291 ng/mL
same,concentration at 24 h,[6],232 ng/mL
same,concentration at 48 h,[6],138 ng/mL
same,concentration at 72 h,[6],110 ng/mL
same,concentration at 1 h,[7],297 ng/mL
same,concentration at 2 h,[7],308 ng/mL
same,concentration at 4 h,[7],252 ng/mL
same,concentration at 6 h,[7],271 ng/mL
same,concentration at 48 h,[7],203 ng/mL
same,concentration at 72 h,[7],107 ng/mL
same,AUC,"human, intravenous, 325 mg/m2, Dose level 325 (mg/m2), one patient per datapoint, read-out: Day 1 AUC",15000 ng·h/mL
same,Cmax,"human, intravenous, 325 mg/m2, Dose level 325 (mg/m2), one patient per datapoint, read-out: Day 1 Cmax",1310 ng/mL
same,AUC,"human, intravenous, 325 mg/m2, Dose level 325 (mg/m2), one patient per datapoint, read-out: Day 8 or 15 AUC",24600 ng·h/mL
same,Cmax,"human, intravenous, 325 mg/m2, Dose level 325 (mg/m2), one patient per datapoint, read-out: Day 8 or 15 Cmax",1440 ng/mL
same,AUC,"human, intravenous, 325 mg/m2, Dose level B: 325 (mg/m2), one patient per datapoint, read-out: Day 1 AUC",25200 ng·h/mL
same,Cmax,"human, intravenous, 325 mg/m2, Dose level B: 325 (mg/m2), one patient per datapoint, read-out: Day 1 Cmax",822 ng/mL
same,concentration at 0 h,[8],1540 ng/mL
same,concentration at 0.5 h,[8],475 ng/mL
same,concentration at 1 h,[8],480 ng/mL
same,concentration at 2 h,[8],445 ng/mL
same,concentration at 4 h,[8],293 ng/mL
same,concentration at 6 h,[8],274 ng/mL
same,concentration at 24 h,[8],242 ng/mL
same,concentration at 48 h,[8],140 ng/mL
same,concentration at 72 h,[8],104 ng/mL
same,concentration at 0.5 h,[9],890 ng/mL
same,concentration at 1 h,[9],698 ng/mL
same,concentration at 4 h,[9],424 ng/mL
same,concentration at 48 h,[9],336 ng/mL
same,concentration at 72 h,[9],219 ng/mL
same,AUC,"human, intravenous, 475 mg/m2, Dose level 475 (mg/m2), one patient per datapoint, read-out: Day 1 AUC",15800 ng·h/mL
same,Cmax,"human, intravenous, 475 mg/m2, Dose level 475 (mg/m2), one patient per datapoint, read-out: Day 1 Cmax",1850 ng/mL
same,Cmax,"human, intravenous, 475 mg/m2, Dose level 475 (mg/m2), one patient per datapoint, read-out: Day 8 or 15 Cmax",1680 ng/mL
same,Cmax,"human, intravenous, 475 mg/m2, RP2D 475 mg/m^2 d1,8,15, read-out: average day 1 Cmax",1740 ± 801 ng/mL
same,Cmax,"human, intravenous, 475 mg/m2, RP2D 475 mg/m^2 d1,8,15, read-out: day 15 Cmax",2870 ± 2310 ng/mL
same,half-life,"human, intravenous, 475 mg/m2, RP2D 475 mg/m^2 d1,8,15, read-out: elimination half-life (t1/2), day 1 (converted)",61.5 ± 15.5 h
same,half-life,"human, intravenous, 475 mg/m2, RP2D 475 mg/m^2 d1,8,15, read-out: elimination half-life (t1/2), day 15 (converted)",59 ± 11.2 h
same,concentration at 14 days,"human, intravenous, 475 mg/m^2, 14 days after the prior dose, read-out: mean trough plasma level prior to cycle 2 day 1",49.1 ± 34.5 ng/mL
same,concentration at 0 h,[10],953 ng/mL
same,concentration at 0.5 h,[10],1040 ng/mL
same,concentration at 2 h,[10],712 ng/mL
same,concentration at 4 h,[10],495 ng/mL
same,concentration at 48 h,[10],222 ng/mL
same,AUC,"human, intravenous, 650 mg/m2, Dose level 650 (mg/m2), one patient per datapoint, read-out: Day 1 AUC",26800 ng·h/mL
same,elimination,,eliminated slowly
